The source made the active and inactive calls.
Experiments:
[1] = molecular target: T1, Microphthalmia-associated transcription factor (Homo sapiens, UniProt O75030); assay: TRPM1 promoter luciferase signal decrease, dose response, MITF inhibitor project, cell-based, SK-MEL-5, cherry-picked, set 3 (AID 493073); type: functional
T1 sequence (O75030 whole entry): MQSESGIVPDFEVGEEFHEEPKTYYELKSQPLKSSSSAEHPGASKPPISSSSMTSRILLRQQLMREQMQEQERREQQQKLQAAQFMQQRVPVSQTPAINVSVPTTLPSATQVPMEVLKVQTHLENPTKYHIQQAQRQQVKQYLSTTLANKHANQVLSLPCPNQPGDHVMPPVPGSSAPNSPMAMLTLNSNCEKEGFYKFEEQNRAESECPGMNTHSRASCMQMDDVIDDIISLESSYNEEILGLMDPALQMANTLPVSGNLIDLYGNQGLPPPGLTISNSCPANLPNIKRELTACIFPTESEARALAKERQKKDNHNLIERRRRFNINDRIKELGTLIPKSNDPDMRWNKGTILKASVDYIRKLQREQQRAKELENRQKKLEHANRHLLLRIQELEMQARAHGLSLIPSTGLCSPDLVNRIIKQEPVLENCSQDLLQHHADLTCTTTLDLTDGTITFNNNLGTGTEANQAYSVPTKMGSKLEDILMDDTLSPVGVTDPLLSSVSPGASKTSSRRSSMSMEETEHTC

[2] = Luminescence Cell-Based Dose Confirmation HTS to Identify Inhibitors of Platelet Dense Granule Release. [Related pubchem assays: 1663 (Primary HTS), 1678 (Summary of Project)]; type: functional
[3] = test system: Escherichia coli; assay: microbe, parasite or virus in culture
[4] = test system: A-375; assay: MITF: Counter assay: A375 proliferation Measured in Cell-Based System Using Plate Reader - 2084-03_Inhibitor_Dose_DryPowder_Activity. [Related pubchem assays (depositor defined):AID488944]; type: functional; details: Homo sapiens
[5] = control 3'UTR Renilla luciferase suppression, dose response, counter-screen for Shn3 inhibitor project, cell-based, Clone20-Shn3RL, cherry-picked (AID 624133); type: functional
[6] = Shn3 3'UTR reporter inhibitors, dose response, cell-based, Clone20 osteoblasts, firefly luciferase, cherry-picked (AID 624132); type: functional;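 note: firefly luciferase luminescence from reporter carrying the Shn3 3'UTR in osteoblasts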
[7] = HepG2 cell cytotoxicity, dose response, cytotoxicity control for Shn3 inhibitor project, CellTiter-Glo, cherry-picked (AID 624134); type: functional, cell-based
[8] = molecular target: Luciferin 4-monooxygenase (Photinus pyralis, UniProt P08659); assay: firefly luciferase enzyme inhibitors, dose response, biochemical, luminescence (AID 1891)
[9] = molecular target: Intestinal-type alkaline phosphatase (Homo sapiens, UniProt P09923); assay: Dose Response confirmation of uHTS hits from a small molecule inhibitors of human intestinal alkaline phosphatase via a luminescent assay. [Related pubchem assays (depositor defined):AID2544, AID2574]; type: functional
[10] = molecular target: T2, Short transient receptor potential channel 4 (Mus musculus, UniProt Q9QUQ5); assay: mouse TRPC4 channel activators, dose response, cell-based, HEK293 TRPC4/mu-opioid, Fluo-4 calcium (AID 434937); type: functional
T2 sequence (Q9QUQ5 whole entry): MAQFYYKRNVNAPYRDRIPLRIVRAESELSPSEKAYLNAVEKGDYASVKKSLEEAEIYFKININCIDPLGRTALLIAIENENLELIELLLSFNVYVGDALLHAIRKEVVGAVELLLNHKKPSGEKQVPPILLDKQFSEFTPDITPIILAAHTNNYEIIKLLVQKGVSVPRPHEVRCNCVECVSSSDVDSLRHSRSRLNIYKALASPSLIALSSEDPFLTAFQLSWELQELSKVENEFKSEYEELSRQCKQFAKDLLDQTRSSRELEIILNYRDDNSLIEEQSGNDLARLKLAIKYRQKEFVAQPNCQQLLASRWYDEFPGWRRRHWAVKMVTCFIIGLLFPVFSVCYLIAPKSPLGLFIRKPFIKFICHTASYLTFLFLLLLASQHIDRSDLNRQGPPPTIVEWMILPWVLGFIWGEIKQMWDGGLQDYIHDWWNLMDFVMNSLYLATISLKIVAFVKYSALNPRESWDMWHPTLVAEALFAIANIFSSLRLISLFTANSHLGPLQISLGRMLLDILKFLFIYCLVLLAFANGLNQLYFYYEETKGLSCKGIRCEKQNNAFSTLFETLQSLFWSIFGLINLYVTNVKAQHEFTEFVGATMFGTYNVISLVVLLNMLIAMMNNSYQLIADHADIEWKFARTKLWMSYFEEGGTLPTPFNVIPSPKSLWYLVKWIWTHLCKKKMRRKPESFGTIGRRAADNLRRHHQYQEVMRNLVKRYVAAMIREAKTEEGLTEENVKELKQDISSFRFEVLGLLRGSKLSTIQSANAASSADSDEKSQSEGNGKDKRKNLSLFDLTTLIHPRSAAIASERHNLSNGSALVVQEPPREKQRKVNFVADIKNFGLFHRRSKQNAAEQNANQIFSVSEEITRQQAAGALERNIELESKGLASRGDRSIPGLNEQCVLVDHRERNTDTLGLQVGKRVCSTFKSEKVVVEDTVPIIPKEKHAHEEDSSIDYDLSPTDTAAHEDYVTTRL

[11] = molecular target: T2, Short transient receptor potential channel 4; assay: mouse TRPC4 channel inhibitors, dose response, cell-based, HEK293 TRPC4/mu-opioid, Fluo-4 calcium (AID 434942); type: functional;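 note: potency of inhibitors blocking the TRPC4 calcium response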
[12] = molecular target: Mitogen-activated protein kinase 10 (Homo sapiens, UniProt P53779); assay: Dose response biochemical screening assay for inhibitors of c-Jun N-Terminal Kinase 3 (JNK3). [Related pubchem assays: 746 ]
[13] = NIH-3T3 fibroblast cytotoxicity, dose response, cytotoxicity control, cell-based, fluorescence, Alamar Blue, secondary assay (AID 2327); type: functional;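 note: NIH-3T3 mouse fibroblasts cultured with fluconazole at 8 µg/mL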
[14] = molecular target: T3, X-box-binding protein 1 (Homo sapiens, UniProt P17861); type: functional, Cricetulus griseus;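 note: confirmatory dose-response counter-screen serving a CHOP assay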
T3 sequence (P17861 whole entry): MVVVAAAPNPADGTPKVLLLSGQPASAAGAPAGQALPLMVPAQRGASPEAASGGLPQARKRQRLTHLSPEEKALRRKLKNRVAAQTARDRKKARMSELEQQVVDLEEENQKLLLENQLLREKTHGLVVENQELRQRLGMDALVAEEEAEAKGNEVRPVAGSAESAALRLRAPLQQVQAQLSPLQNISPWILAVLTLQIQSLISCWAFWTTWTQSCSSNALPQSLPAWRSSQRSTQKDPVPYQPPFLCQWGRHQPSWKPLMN

[15] = C. albicans growth with fluconazole, confirmation, fluorescence, retest (AID 2467); type: functional, cell-based
[16] = cytotoxicity in HEK-293T cells, dose response, cytotoxicity control for TCR NF-kB inhibitor project, luminescence, T-cell screen hits (AID 489026); type: functional, cell-based;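 note: cells exposed to compound about 14 hours before the viability readout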
[17] = cells; type: functional, cell-based
[18] = molecular target: T4, Heat shock factor protein 1 (Mus musculus, UniProt P38532); assay: inhibition of MG132-induced HSE-luciferase signal, confirmation, cell-based, NIH3T3, luminescence, dose retest (AID 2382); type: functional;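 note: NIH3T3 fibroblasts with HSF1-driven luciferase reporter stressed by proteasome inhibitor MG132; luminescence from HSF1-driven luciferase expression after 8 hours of MG132 stress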
T4 sequence (P38532 whole entry): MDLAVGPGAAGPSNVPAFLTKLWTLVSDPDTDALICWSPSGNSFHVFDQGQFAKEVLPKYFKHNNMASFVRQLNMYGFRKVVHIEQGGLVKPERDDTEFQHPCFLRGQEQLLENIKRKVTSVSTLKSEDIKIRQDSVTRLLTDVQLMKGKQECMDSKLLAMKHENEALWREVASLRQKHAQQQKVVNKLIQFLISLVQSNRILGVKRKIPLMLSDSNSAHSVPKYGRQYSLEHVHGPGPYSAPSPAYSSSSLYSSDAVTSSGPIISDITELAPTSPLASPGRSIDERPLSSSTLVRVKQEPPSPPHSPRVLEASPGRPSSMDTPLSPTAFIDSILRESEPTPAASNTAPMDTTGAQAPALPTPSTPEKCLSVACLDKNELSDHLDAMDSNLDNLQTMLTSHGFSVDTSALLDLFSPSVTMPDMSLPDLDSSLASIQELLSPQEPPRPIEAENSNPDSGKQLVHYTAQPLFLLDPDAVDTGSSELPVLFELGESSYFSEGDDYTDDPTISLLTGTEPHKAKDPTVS

[19] = cells; type: functional, cell-based; remark: listed apart in the source
[20] = molecular target: 5-hydroxytryptamine receptor 5A (Homo sapiens, UniProt P47898); assay: Counterscreen for agonists of OPRM1-OPRD1 heterodimerization: luminescence-based cell-based high throughput dose response assay to identify agonists of 5-hydroxytryptamine (serotonin) 5A receptor (HTR5A). [Related pubchem assays (depositor defined):AID504326, AID504355, AID504692, AID504904, AID504905]; type: functional
[21] = molecular target: Mu-type opioid receptor (Homo sapiens, UniProt P35372); assay: (§1) Counterscreen for agonists of heterodimerization of the mu 1 (OPRM1) and delta 1 (OPRD1) opioid receptors: Luminescence-based cell-based high throughput dose response assay to identify agonists of OPRM1 homodimerization.; type: functional
[22] = molecular target: Delta-type opioid receptor (Homo sapiens, UniProt P41143); assay: as §1, with “of OPRD1” for “of OPRM1”, “homodimerization. [Related pubchem assays (depositor defined):AID504326, AID504355, AID504692, AID504904, AID504905]” for “homodimerization.”; type: functional
[23] = molecular target: T5, Aryl hydrocarbon receptor (Homo sapiens, UniProt P35869); assay: Luminescence-based cell-based high throughput dose response assay for activators of the Aryl Hydrocarbon Receptor (AHR). [Related pubchem assays: 2796 (Primary screen (AHR activators in singlicate)), 2845 (Confirmation screen (AHR activators in triplicate)), 434939 (Counterscreen (PXR activators in triplicate)), 2804 (Summary (AHR activators))]; type: ADME
T5 sequence (P35869 whole entry): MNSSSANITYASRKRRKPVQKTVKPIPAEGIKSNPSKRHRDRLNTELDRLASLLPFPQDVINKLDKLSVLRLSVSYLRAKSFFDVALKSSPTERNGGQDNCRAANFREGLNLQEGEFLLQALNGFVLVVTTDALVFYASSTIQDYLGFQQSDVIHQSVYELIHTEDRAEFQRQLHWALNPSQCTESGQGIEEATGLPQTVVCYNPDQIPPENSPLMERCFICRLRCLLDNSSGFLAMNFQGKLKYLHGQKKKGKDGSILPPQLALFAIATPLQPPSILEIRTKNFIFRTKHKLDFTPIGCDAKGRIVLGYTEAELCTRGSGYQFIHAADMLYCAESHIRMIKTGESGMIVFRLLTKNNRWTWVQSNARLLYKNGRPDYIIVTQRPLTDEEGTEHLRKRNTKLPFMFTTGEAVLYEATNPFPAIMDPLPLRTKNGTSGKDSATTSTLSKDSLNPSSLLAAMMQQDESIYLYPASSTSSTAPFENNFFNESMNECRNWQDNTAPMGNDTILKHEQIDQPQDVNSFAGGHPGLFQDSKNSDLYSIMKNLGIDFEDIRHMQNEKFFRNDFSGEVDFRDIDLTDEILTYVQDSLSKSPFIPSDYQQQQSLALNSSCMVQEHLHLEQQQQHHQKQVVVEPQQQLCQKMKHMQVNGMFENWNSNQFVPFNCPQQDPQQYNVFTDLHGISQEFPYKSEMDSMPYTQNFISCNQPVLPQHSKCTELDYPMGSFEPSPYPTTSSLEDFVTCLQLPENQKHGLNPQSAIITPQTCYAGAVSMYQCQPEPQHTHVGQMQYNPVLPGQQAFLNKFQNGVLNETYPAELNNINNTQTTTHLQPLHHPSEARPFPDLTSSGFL

[24] = molecular target: T6, CAAX prenyl protease 2 (Saccharomyces cerevisiae S288c, UniProt Q03530); type: biochemical
T6 sequence (Q03530 whole entry): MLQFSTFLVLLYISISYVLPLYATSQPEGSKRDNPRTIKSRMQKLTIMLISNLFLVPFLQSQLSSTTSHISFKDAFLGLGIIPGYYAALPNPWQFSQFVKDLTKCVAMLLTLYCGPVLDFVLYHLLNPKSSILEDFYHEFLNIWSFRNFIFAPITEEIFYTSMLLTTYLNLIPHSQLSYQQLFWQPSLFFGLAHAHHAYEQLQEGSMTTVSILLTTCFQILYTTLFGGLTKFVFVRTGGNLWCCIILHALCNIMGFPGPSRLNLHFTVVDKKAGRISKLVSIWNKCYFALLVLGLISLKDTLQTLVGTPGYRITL

Intestinal-type alkaline phosphatase, sequence (P09923 whole entry): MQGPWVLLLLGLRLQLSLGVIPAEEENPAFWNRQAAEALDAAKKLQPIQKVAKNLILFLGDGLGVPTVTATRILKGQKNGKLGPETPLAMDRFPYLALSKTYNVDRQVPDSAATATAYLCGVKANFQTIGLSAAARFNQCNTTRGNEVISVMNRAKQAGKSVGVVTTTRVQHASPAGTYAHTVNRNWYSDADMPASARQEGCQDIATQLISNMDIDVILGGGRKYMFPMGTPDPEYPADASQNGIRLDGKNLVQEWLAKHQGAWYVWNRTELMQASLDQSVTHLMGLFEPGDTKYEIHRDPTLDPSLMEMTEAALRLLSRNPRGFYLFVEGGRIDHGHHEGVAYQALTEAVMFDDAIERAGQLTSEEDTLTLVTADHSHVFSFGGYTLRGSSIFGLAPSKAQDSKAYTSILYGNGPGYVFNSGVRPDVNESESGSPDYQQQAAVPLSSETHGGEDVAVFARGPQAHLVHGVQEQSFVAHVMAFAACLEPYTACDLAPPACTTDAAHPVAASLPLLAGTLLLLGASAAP
Delta-type opioid receptor, sequence (P41143 whole entry): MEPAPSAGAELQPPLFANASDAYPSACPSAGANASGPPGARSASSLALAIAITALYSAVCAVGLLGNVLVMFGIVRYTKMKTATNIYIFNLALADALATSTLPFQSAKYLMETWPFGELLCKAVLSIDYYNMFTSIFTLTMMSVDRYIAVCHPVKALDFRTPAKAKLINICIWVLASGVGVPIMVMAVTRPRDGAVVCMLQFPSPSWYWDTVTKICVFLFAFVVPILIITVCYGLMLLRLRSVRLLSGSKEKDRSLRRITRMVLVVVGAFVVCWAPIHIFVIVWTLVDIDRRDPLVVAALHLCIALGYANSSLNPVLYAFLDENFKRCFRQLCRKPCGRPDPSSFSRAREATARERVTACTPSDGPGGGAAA
Luciferin 4-monooxygenase, sequence (P08659 whole entry): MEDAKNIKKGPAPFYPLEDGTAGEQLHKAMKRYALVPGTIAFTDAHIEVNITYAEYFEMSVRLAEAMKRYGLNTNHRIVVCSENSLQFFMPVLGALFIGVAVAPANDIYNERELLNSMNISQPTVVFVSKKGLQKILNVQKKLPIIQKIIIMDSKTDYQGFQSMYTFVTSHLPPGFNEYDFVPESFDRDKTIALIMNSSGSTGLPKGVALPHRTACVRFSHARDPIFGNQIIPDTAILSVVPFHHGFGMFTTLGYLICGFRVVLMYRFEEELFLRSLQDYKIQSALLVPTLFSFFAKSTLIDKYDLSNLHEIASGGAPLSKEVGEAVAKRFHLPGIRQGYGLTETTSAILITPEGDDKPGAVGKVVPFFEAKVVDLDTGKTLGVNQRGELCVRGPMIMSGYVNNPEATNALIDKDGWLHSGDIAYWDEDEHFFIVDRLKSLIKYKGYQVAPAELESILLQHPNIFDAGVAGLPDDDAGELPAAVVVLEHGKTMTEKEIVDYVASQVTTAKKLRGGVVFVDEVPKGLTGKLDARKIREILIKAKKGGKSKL
Mitogen-activated protein kinase 10, sequence (P53779 whole entry): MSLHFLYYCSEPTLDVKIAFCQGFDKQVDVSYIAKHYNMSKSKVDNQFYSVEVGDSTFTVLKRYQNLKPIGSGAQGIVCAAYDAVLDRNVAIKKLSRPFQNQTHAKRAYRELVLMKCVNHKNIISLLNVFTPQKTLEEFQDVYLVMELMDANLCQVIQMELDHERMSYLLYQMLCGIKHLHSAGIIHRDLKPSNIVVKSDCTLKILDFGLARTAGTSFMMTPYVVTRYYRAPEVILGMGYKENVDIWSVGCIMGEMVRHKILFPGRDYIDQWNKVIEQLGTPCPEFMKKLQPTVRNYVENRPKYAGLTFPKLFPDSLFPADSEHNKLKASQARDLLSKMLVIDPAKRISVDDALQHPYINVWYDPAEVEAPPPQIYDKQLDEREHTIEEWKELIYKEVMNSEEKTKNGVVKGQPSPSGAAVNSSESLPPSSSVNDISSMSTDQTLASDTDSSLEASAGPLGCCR
5-hydroxytryptamine receptor 5A, sequence (P47898 whole entry): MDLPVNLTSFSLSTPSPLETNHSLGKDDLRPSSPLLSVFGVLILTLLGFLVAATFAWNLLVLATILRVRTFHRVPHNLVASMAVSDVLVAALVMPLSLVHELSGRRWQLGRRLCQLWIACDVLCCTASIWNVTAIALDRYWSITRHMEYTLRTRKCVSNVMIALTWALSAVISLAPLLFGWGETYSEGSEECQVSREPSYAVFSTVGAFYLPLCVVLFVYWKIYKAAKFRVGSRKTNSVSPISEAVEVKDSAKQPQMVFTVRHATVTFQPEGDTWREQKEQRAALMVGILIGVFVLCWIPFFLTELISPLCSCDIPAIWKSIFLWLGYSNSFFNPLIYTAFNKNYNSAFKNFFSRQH
Mu-type opioid receptor, sequence (P35372 whole entry): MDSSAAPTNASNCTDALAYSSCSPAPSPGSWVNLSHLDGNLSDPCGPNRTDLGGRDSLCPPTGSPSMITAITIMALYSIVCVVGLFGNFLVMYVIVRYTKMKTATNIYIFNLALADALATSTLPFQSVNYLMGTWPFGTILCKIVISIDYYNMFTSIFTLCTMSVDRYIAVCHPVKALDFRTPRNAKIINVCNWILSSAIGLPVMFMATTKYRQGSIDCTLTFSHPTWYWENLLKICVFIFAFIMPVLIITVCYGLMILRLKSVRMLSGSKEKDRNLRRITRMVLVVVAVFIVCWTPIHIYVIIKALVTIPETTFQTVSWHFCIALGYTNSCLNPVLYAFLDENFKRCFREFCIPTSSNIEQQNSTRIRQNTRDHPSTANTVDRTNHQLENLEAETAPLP

## O=C(/C=C/Nc1ccccc1Br)c1ccccn1
[1]
  AC50: 0.899 µM (active)
[2]
  EC50: 4.02 µM (active)
[3]
  AC50: > 150 µM (inactive)
[4]
  AC50: 27.6 µM (active)
[5]
  AC50: 30.4 µM (active)
[6]
  AC50: 1.8 µM (active)
[7]
  AC50: 47.7 µM (active)
[8]
  EC50: 1.34 µM (active)

## COc1ccc(NC(=O)CCN2CCN(S(=O)(=O)c3cc(Cl)ccc3OC)CC2)cc1
[9]
  IC50: > 100 µM (inactive)

## Cc1cc(NCc2ccccc2)nc2ccccc12
[10]
  EC50: 8.41 µM (active)
[11]
  EC50: 3.35 µM (active)

## N#C/C(=C(\O)c1ccco1)c1ccccn1
[9]
  IC50: > 100 µM (inactive)
[12]
  IC50: 51.9 µM (not active)

## C=CCSc1nc(-c2ccc(OCCCC)cc2)n[nH]1
[13]
  EC50: > 150 µM (inactive)
[14]
  Absolute IC50 (XBP1): < 10 µM
[15]
  EC50: > 38 µM (not active)

## Fc1ccc(NC(S)=NCCc2ccccn2)cc1
[10]
  EC50: 2.11 µM (active)

## COC(=O)[C@]12OC[C@]34C([C@@H](O)[C@@H]1O)[C@]1(C)CC(=O)C(O)=C(C)[C@@H]1C[C@H]3OC(=O)[C@H](O)[C@@H]24 (some centres undefined)
[16]
  IC50: > 80 µM (inactive)
[17]
  EC50: > 350 µM (not active)
[18]
  EC50: 1.01 µM (active)
[19]
  EC50: > 350 µM (not active)

## Cc1ccc(NS(=O)(=O)c2ccc(C(=O)NC3CCN(Cc4ccccc4)CC3)cc2)cc1
[16]
  IC50: 76.2 µM (inactive)
[5]
  AC50: 12.9 µM (active)
[6]
  AC50: 4.69 µM (active)
[7]
  AC50: 14.8 µM (active)

## CC(C)c1ccc(C2C3CSCC=C3C(C#N)=C(N)C2(C#N)C#N)cc1 (centres undefined)
[14]
  Absolute IC50 (XBP1): 10 µM

## O=C1CC(c2cc(F)ccc2F)c2cc3c(cc2N1)CCC3 (centres undefined)
[16]
  IC50: > 80 µM (inactive)

## Cc1ccc(C)c(-n2cc(CNCCc3cnccn3)c(-c3ccccc3)n2)c1
[20]
  EC50: > 92.5 µM (inactive)
[10]
  EC50: 0.267 µM (active)
[21]
  EC50: > 92.5 µM (inactive)
[22]
  EC50: > 92.5 µM (inactive)

## CC(C)c1ccccc1NC(=O)Cn1c(/C=C/c2ccccc2)nc2ccccc21
[14]
  Absolute IC50 (XBP1): 10 µM

## COc1ccc(-c2oc3ccc(N4CCOCC4)cc3c2C#Cc2ccc(N)cc2)cc1
[23]
  EC50: 5.72 µM (active)
[24]
  AC50: 5.02 µM (active)

Reference: ChEMBL document CHEMBL1201862, “PubChem BioAssay data set” (2004)
